# Publication PMC2803762 (Molecules, 2008)
# Test system: pig liver esterase (PLE; EC 3.1.1.1)
# Test: release of p-nitroaniline at […] nm, saturation curve
# Type: biochemical, Sus scrofa
# Conditions: PBS pH 7.7, 10% v/v DMSO, 25 °C, PLE 0.25 μg/mL, substrate 0.5-33 μM
compound,measurement,value
"CC(=O)Oc1cc(C)cc(C)c1C(C)(C)CC(=O)Nc1ccc([N+](=O)[O-])cc1 [compound 1, prochromophore 1]",Km,14 µM
